Test results: patent publication US20110217300A1, “Quinazolinone Compounds and Methods of Use Thereof” (priority 2007, published 2011)

Columns and labels:
Assay in all cases: MTS cell viability assay
Type in all cases: cell-based
AN3CA = conditions: Homo sapiens, AN3-CA, endometrial
Experimental: (§1) Cell viability was determined by measuring the activity of dehydrogenase enzymes in metabolically active cells using a tetrazolium compound, MTS. The assay was performed as described in Promega Technical Bulletin No. 169 (CellTiter 96 Aqueous Non-Radioactive Cell Proliferation Assay). Two human cancer cell lines were assayed (see, Table 1). Cells were maintained at 37° C. and 5% CO2 in DMEM media (4.5 g/L glucose) supplemented with 10% heat-inactivated FBS, 10 mM L-glutamine, and 10 mM Hepes pH 7.5. Briefly, cells were seeded in 96-well plates as set forth in Table 1 and incubated for 16-24 hours. Candidate compounds were serially diluted in DMSO, further diluted in cell culture media, and then added to cells (final DMSO concentration of 0.33%). Cells were incubated in the presence of candidate compound for 72 hours. MTS stock solution (MTS 2 gm/L, PMS […] in PBS) was added to the cells (final concentration MTS […] and PMS 7.67 mg/L) and incubated for 4 hours. SDS was added to a final concentration of 1.4% and absorbance at 490 nm was measured within two hours using a plate reader. […] GI50 values were given in Table 2 for the compounds listed. The Compound Numbers in Table 2 correspond to the numbers listed parenthetically in the Example titles. Where multiple measurements were made by different technicians, both values are given.
(§2) Cell viability was determined for N-(3-amino-propyl)-3-chloro-N—[(R)-1-(7-chloro-4-oxo-3-phenylamino-3,4-dihydro-quinazolin-2-yl)-but-3-ynyl]-2-fluoro-benzamide (compound I of Table 2). The cell viability assay of Example 105 was used. GI50 was determined using a variety of cell lines. Cells were plated at 100-5000 cells per well. At least 2 replicates were performed. Where multiple measurements were made by different technicians, both values are given.

COLO-205 = conditions: Homo sapiens, colon
Experimental: as §1, §2

LS411N = conditions: Homo sapiens, LS-411N, colon
Experimental: as §1, §2

KG-1a = conditions: Homo sapiens, AML
Experimental: as §1, §2

HPAF-II = conditions: Homo sapiens, pancreas
Experimental: as §1, §2

HCT-116 = conditions: Homo sapiens, colon
Experimental: as §1, §2

WIDR = conditions: Homo sapiens, Colorectal adenocarcinoma
Experimental: as §1, §2

RKO = conditions: Homo sapiens, Colon Carcinoma
Experimental: as §1, §2

RT-112 = conditions: Human urinary bladder cell carcinoma
Experimental: as §1, §2

CALU-6 = conditions: Homo sapiens, lung
Experimental: as §1, §2

SK-MEL-28 = conditions: Malignant melanoma
Experimental: as §1, §2

SNU-16 = conditions: Homo sapiens, Gastric Carcinoma
Experimental: as §1, §2

NCI-H661 = conditions: Homo sapiens, Large cell Lung Cancer
Experimental: as §1, §2

WM-266.4 = conditions: Homo sapiens, WM 266-4, Melanoma
Experimental: as §1, §2

CAKI-2 = conditions: Homo sapiens, kidney
Experimental: as §1, §2

CCS292 = conditions: Clear cell Sarcoma
Experimental: as §1, §2

RT-4 = conditions: Human urinary bladder cell carcinoma
Experimental: as §1, §2

NCI-H358 = conditions: Homo sapiens, Non-small cell lung cancer, brancioalveolar carcinoma
Experimental: as §1, §2

THP-1 = conditions: Homo sapiens, Acute monocytic leukemia
Experimental: as §1, §2

NTERA-2 c1. D1 = conditions: NTERA2, Testis pluripotent embryonal carcinoma
Experimental: as §1, §2

LS174T = conditions: Homo sapiens, Colorectal Carcinoma
Experimental: as §1, §2

HEP-G2 = conditions: Homo sapiens, HepG2, Hepatocellular carcinoma
Experimental: as §1, §2

A-375 = conditions: Homo sapiens, Malignant melanoma
Experimental: as §1, §2

786-O = conditions: Homo sapiens, 786-0, kidney
Experimental: as §1, §2

A427 = conditions: Homo sapiens, A-427, Lung Carcinoma
Experimental: as §1, §2

SK-HEP-1 = conditions: Homo sapiens, SK-HEP1, Liver adenocarcinoma
Experimental: as §1, §2

LoVo = conditions: Homo sapiens, Colorectal Carcinoma
Experimental: as §1, §2

NCI-H526 = conditions: Homo sapiens, Lung carcinoma, variant small cell lung cancer
Experimental: as §1, §2

SK-LMS-1 = conditions: Leiomyosarcoma
Experimental: as §1, §2

SNU-1 = conditions: Homo sapiens, SNU1, Stomach
Experimental: as §1, §2

SNU475 = conditions: Homo sapiens, SNU-475, liver
Experimental: as §1, §2

MDA-MB-231 = conditions: Breast adenocarcinoma
Experimental: as §1, §2

MIA-PaCa2 = conditions: Homo sapiens, MIA PaCa-2, Pancreas
Experimental: as §1, §2

Q: For C#CC[C@H](c1nc2cc(Cl)ccc2c(=O)n1Nc1ccccc1)N(CCCN)C(=O)c1cccc(Cl)c1F [Compound 1, N-(3-Amino-propyl)-3-chloro-N—[(R)-1-(7-chloro-4-oxo-3-phenylamino-3,4-dihydro-quinazolin-2-yl)-but-3-ynyl]-2-fluoro-benzamide], which GI50 (AN3CA) is on record?
A: Its GI50 is 0.201 µM.

Q: And the GI50 (COLO-205)?
A: Its GI50 is 0.106 µM.

Q: And the GI50 (LS411N)?
A: Its GI50 is 0.237 µM.

Q: What about the GI50 (KG-1a) of the same molecule?
A: The GI50 was 3.2 µM.

Q: What about the GI50 (HPAF-II) of the same molecule?
A: Its GI50 is 2.06 µM.

Q: And the GI50 (HCT-116)?
A: The GI50 was 0.074 µM.

Q: And the GI50 (WIDR)?
A: Its GI50 is 0.783 µM.

Q: What about the GI50 (RKO) of the same molecule?
A: Its GI50 is 0.11 µM.

Q: What about the GI50 (RT-112) of the same molecule?
A: Its GI50 is 0.053 µM.

Q: What about the GI50 (CALU-6) of the same molecule?
A: Its GI50 is 0.105 µM.

Q: And the GI50 (SK-MEL-28; Homo sapiens, SK-MEL-28, SK-MEL-28)?
A: The GI50 was 2.16 µM.

Q: What about the GI50 (SK-MEL-28; SK-MEL-28, listed as I) of the same molecule?
A: Its GI50 is 3.13 µM.

Q: What about the GI50 (SNU-16) of the same molecule?
A: The GI50 was 0.136 µM.

Q: And the GI50 (NCI-H661)?
A: The GI50 was 0.109 µM.

Q: What about the GI50 (WM-266.4) of the same molecule?
A: The GI50 was 2.3 µM.

Q: And the GI50 (CAKI-2)?
A: The GI50 was 4.24 µM.

Q: What about the GI50 (CCS292) of the same molecule?
A: The GI50 was 0.833 µM.

Q: What about the GI50 (RT-4) of the same molecule?
A: Its GI50 is 0.368 µM.

Q: And the GI50 (NCI-H358)?
A: Its GI50 is 0.19 µM.

Q: What about the GI50 (THP-1) of the same molecule?
A: The GI50 was 0.226 µM.

Q: What about the GI50 (NTERA-2 c1. D1) of the same molecule?
A: Its GI50 is 0.063 µM.

Q: And the GI50 (LS174T)?
A: The GI50 was 0.796 µM.

Q: What about the GI50 (HEP-G2) of the same molecule?
A: The GI50 was 3.84 µM.

Q: What about the GI50 (A-375) of the same molecule?
A: Its GI50 is 0.766 µM.

Q: And the GI50 (786-O)?
A: Its GI50 is 1.75 µM.

Q: What about the GI50 (A427) of the same molecule?
A: Its GI50 is 0.064 µM.

Q: And the GI50 (SK-HEP-1)?
A: Its GI50 is 0.319 µM.

Q: What about the GI50 (LoVo) of the same molecule?
A: The GI50 was 0.359 µM.

Q: What about the GI50 (NCI-H526) of the same molecule?
A: Its GI50 is 0.125 µM.

Q: And the GI50 (SK-LMS-1)?
A: Its GI50 is 2.21 µM.

Q: What about the GI50 (SNU-1) of the same molecule?
A: The GI50 was 0.552 µM.

Q: And the GI50 (SNU475)?
A: The GI50 was 2.35 µM.

Q: What about the GI50 (MDA-MB-231; Homo sapiens, MDA-MB-231, MDA-MB-231) of the same molecule?
A: Its GI50 is 0.359 µM.

Q: And the GI50 (MDA-MB-231; MDA-MB-231, listed as I)?
A: The GI50 was 0.249 µM.

Q: And the GI50 (MIA-PaCa2)?
A: Its GI50 is 0.259 µM.
